The Kinase Knowledgebase extract (Sharma et al. 2016)

Each compound was assayed against PIK3CA (human) (UniProt P42336) (assay: Assessment of PIK3CA Kinase Activity).
Sequence of PIK3CA (human) (P42336 whole entry, looked up): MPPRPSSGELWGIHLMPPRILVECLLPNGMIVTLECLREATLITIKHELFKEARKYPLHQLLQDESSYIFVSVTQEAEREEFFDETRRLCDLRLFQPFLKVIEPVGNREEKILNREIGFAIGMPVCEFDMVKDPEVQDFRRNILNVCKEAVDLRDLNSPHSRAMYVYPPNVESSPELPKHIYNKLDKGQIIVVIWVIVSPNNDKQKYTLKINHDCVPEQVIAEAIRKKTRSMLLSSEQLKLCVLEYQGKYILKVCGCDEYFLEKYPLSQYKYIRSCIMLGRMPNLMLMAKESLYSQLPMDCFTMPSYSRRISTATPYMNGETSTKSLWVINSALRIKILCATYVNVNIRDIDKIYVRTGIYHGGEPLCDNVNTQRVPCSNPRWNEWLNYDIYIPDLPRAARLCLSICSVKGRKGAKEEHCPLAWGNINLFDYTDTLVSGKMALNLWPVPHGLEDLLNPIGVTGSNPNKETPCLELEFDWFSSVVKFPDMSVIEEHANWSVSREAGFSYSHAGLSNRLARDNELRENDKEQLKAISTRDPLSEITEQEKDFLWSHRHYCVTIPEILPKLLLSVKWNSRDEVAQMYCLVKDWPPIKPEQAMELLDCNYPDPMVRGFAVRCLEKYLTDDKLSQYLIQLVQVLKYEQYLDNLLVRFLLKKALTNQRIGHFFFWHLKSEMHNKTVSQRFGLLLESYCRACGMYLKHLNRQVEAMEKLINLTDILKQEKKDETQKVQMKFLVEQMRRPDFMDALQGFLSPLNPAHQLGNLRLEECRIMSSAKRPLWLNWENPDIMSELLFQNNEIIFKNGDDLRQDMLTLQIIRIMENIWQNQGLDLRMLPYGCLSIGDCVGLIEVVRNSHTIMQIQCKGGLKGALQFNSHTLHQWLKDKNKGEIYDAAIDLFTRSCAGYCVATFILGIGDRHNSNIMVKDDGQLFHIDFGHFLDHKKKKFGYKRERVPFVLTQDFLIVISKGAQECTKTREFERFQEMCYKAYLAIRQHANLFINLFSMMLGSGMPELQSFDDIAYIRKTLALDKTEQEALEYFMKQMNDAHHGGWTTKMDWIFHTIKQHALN
Work on `CN(C)C(=O)c1ccc(NC(=O)Nc2ccc(-c3nc(N4CCOCC4)c4ccc(-c5ccncc5)cc4n3)cc2)cc1` yielded an IC50 of less than 50 nM.
With `CN(C)C(=O)c1ccc(NC(=O)Nc2ccc(-c3nc(N4CCOCC4)c4ccc(-c5ccnnc5)cc4n3)cc2F)cc1` the IC50 was 50 to 200 nM.
Work on `Cc1ccncc1-c1cnc2c(N3CCOCC3)nc(-c3ccc(NC(=O)Nc4ccc(C(=O)N(C)C)cc4)c(F)c3)nc2c1` yielded an IC50 of 50 to 200 nM.
For `Cc1ccncc1-c1ccc2c(N3CCOCC3)nc(-c3ccc(NC(=O)Nc4ccc(C(=O)N(C)C)cc4)cc3)nc2c1`, the IC50 was less than 50 nM.
Compound `Cc1ccc(-c2ccc3c(N4CCOCC4)nc(-c4ccc(NC(=O)Nc5ccc(C(=O)N(C)CCN(C)C)cc5)cc4)nc3c2)o1` has an IC50 of less than 50 nM.
`CN(C)CCNC(=O)c1ccc(NC(=O)Nc2ccc(-c3nc(N4CCOCC4)c4ccc(-c5cncnc5)cc4n3)cc2)cc1` was tested, and the IC50 was 50 to 200 nM.
With `CN(C)C(=O)c1ccc(NC(=O)Nc2ccc(-c3nc(N4CCOCC4)c4ccc(-c5ccccn5)cc4n3)cc2)cc1` the IC50 was less than 50 nM.
Work on `CN(C)C(=O)c1ccc(NC(=O)Nc2ccc(-c3nc(N4CCOCC4)c4ccc(-c5ccc(CO)o5)cc4n3)cc2)c(F)c1` yielded an IC50 of less than 50 nM.
`CN(C)C(=O)c1ccc(NC(=O)Nc2ccc(-c3nc(N4CCOCC4)c4ccc(-c5ccco5)cc4n3)cc2)cc1F` was tested, and the IC50 was 50 to 200 nM.
For `CN(C)C(=O)c1ccc(NC(=O)Nc2ccc(-c3nc(N4CCOCC4)c4ccc(-c5cccnc5F)cc4n3)c(F)c2)cc1`, the IC50 was less than 50 nM.
`CN(C)C(=O)c1ccc(NC(=O)Nc2ccc(-c3nc(N4CCOCC4)c4ccc(-c5cccc(S(C)(=O)=O)c5)cc4n3)c(F)c2)cc1` gave an IC50 of less than 50 nM.
For `CN(C)C(=O)c1ccc(NC(=O)Nc2ccc(-c3nc(N4CCOCC4)c4ccc(-c5cnc(N)nc5)cc4n3)cc2)cc1`, the IC50 was less than 50 nM.
Work on `CN(C)C(=O)c1ccc(NC(=O)Nc2ccc(-c3nc(N4CCOCC4)c4ccc(-c5ccc(CO)o5)cc4n3)cc2F)cc1` yielded an IC50 of less than 50 nM.
Compound `COc1ncc(-c2ccc3c(N4CCOCC4)nc(-c4ccc(NC(=O)Nc5ccc(C(=O)N(C)C)cc5F)cc4)nc3c2)cn1` has an IC50 of 50 to 200 nM.
`Cc1ccc(-c2ccc3c(N4CCOCC4)nc(-c4ccc(NC(=O)Nc5ccc(C(=O)NCCN(C)C)cc5)cc4)nc3c2)o1` gave an IC50 of 50 to 200 nM.
With `Cc1ccncc1-c1ccc2c(N3CCOCC3)nc(-c3ccc(NC(=O)Nc4ccc(C(=O)N(C)C)cc4)c(F)c3)nc2c1` the IC50 was less than 50 nM.
In the case of `Cc1nn(C)c(C)c1-c1ccc2c(N3CCOCC3)nc(-c3ccc(NC(=O)Nc4ccc(C(=O)N(C)C)cc4)cc3F)nc2c1`, the IC50 is reported as less than 50 nM.
`Cc1ccc(-c2cccc3c(N4CCOCC4)nc(-c4ccc(NC(=O)Nc5ccc(C(=O)N(C)C)cc5)cc4)nc23)o1` showed an IC50 of 50 to 200 nM.
With `CC(=O)Nc1ccc(NC(=O)Nc2ccc(-c3nc(N4CCOCC4)c4ccc(-c5cncnc5)cc4n3)cc2)cc1` the IC50 was less than 50 nM.
Compound `CN(C)C(=O)c1ccc(NC(=O)Nc2ccc(-c3nc(N4CCOCC4)c4ncc(-c5cnn(C)c5)cc4n3)cc2F)cc1` has an IC50 of less than 50 nM.
Compound `COc1ncc(-c2ccc3c(N4CCOCC4)nc(-c4ccc(NC(=O)Nc5ccc(C(=O)N(C)C)cc5)nc4)nc3c2)cn1` has an IC50 of less than 50 nM.
In the case of `CN(C)C(=O)c1ccc(NC(=O)Nc2ccc(-c3nc(N4CCOCC4)c4ccc(-c5ccncc5F)cc4n3)cc2)cc1`, the IC50 is reported as less than 50 nM.
Compound `COc1ccc(-c2ccc3c(N4CCOCC4)nc(-c4ccc(NC(=O)Nc5ccc(C(=O)N(C)C)cc5)c(F)c4)nc3c2)cn1` has an IC50 of 50 to 200 nM.
With `CN(C)C(=O)c1ccc(NC(=O)Nc2ccc(-c3nc(N4CCOCC4)c4cccc(-c5ccc(F)nc5)c4n3)cc2)cc1` the IC50 was 50 to 200 nM.
In the case of `Cc1ccc(-c2cc3nc(-c4ccc(NC(=O)Nc5ccc(C(=O)N(C)C)cc5)cc4)nc(N4CCOCC4)c3cc2F)o1`, the IC50 is reported as 50 to 200 nM.
Compound `CN(C)C(=O)c1ccc(NC(=O)Nc2ccc(-c3nc(N4CCOCC4)c4ccc(-c5cnn(C)c5)cc4n3)cc2)cc1` has an IC50 of less than 50 nM.
`CN(C)C(=O)c1ccc(NC(=O)Nc2ccc(-c3nc(N4CCOCC4)c4ccc(-c5cnc6ccccc6c5)cc4n3)cc2)cc1` showed an IC50 of less than 50 nM.
Compound `Cc1ncccc1-c1ccc2c(N3CCOCC3)nc(-c3ccc(NC(=O)Nc4ccc(C(=O)N(C)C)cc4)cc3F)nc2c1` has an IC50 of less than 50 nM.
`CN(C)C(=O)c1ccc(NC(=O)Nc2ccc(-c3nc(N4CCOCC4)c4ccc(-c5ccco5)cc4n3)c(F)c2F)cc1` gave an IC50 of 50 to 200 nM.
Work on `COc1ncc(-c2cnc3c(N4CCOCC4)nc(-c4ccc(NC(=O)Nc5ccc(C(=O)N(C)C)cc5)cc4F)nc3c2)cn1` yielded an IC50 of less than 50 nM.
In the case of `Cc1noc(C)c1-c1ccc2c(N3CCOCC3)nc(-c3ccc(NC(=O)Nc4ccc(C(=O)N(C)C)cc4)cc3F)nc2c1`, the IC50 is reported as 50 to 200 nM.
`CN(C)C(=O)c1ccc(NC(=O)Nc2ccc(-c3nc(N4CCOCC4)c4ccc(-c5ccco5)cc4n3)c(F)c2)cc1` gave an IC50 of 50 to 200 nM.
`CN(C)CCNC(=O)c1ccc(-c2ccc3c(N4CCOCC4)nc(-c4ccc(NC(=O)Nc5ccc(C(=O)N(C)C)cc5)cc4)nc3c2)o1` showed an IC50 of 50 to 200 nM.
Work on `CN(C)C(=O)c1ccc(NC(=O)Nc2ccc(-c3nc(N4CCOCC4)c4ccc(-c5cncnc5)cc4n3)cn2)c(F)c1` yielded an IC50 of less than 50 nM.
For `CN(C)C(=O)c1ccc(NC(=O)Nc2ccc(-c3nc(N4CCOCC4)c4ccc(-c5cncc(F)c5)cc4n3)cc2)cc1`, the IC50 was less than 50 nM.
Work on `CC(=O)Nc1ccc(NC(=O)Nc2ccc(-c3nc(N4CCOCC4)c4ccc(-c5ccc(C)o5)cc4n3)cc2)cc1` yielded an IC50 of 50 to 200 nM.
